Read-outs that look alike come from different tables or passages of the source.
Columns and labels:
[1] = test system: Lentinus sp. laccase, wild type, purified from culture; assay: Laccase kinetics of purified Lentinus sp. laccase; assay type: biochemical
Experimental: All chemicals used in this study were obtained from Merck (Darmstadt, Germany) or Sigma-Aldrich (St. Louis, Mo. USA). All spectrophotometric measurements were performed using the Beckman DU 640 spectrophotometer (Beckman Coulter, USA).
Kinetic parameters Km and Vmax were determined as follows. […] The oxidation reactions of guaiacol and 2,6-DMP were monitored by determining OD436 values (ε=6,400 M^−1cm^−1) and OD468 values (ε=49,600 M^−1 cm^−1), respectively. The kinetic parameters were determined by nonlinear regression analysis (ENZFITTER software program, Elsevier-Biosoft, Cambridge, UK) using the Michaelis-Menten model.
Kinetic parameters were determined following conventional methods. See also Example 1 above.

Agaricus blazei laccase = conditions: ABTS as substrate, optimum 25 °C at pH 2.3, cited from earlier work
[2] = test system: Pycnoporus sanguineus laccase; conditions: ABTS as substrate, optimum 25 °C at pH 3.0, cited from earlier work
[3] = test system: Trametes C30 laccase LAC2; conditions: ABTS as substrate, optimum 55 °C at pH 5.7, cited from earlier work
[4] = test system: Trametes versicolor laccase; conditions: ABTS as substrate, optimum 55 °C at pH 4.0, cited from earlier work
Panus tigrinus laccase = conditions: ABTS as substrate, optimum 30 °C at pH 3.5, cited from earlier work
[5] = test system: Pleurofus sajor-caju laccase; conditions: ABTS as substrate, optimum 40 °C at pH 5.0, cited from earlier work
[6] = test system: Panus(Lentinus)tigrinus 8/18 laccase; conditions: ABTS as substrate; cited from earlier work
Cerrena unicolor laccase = conditions: ABTS as substrate; optimum 70 °C at pH 3.5; cited from earlier work
[7] = test system: Trametes pubescens laccase LAP2; conditions: ABTS as substrate, optimum 25 °C at pH 4.0, cited from earlier work
[8] = Laccase activity in culture media of recombinant P. pastoris; assay type: biochemical; conditions: expressed in P. pastoris X-33; 13-26 day (Lcc1-3) or 18-day (LccA) cultivation
Description: The EasySelect™ Pichia Expression System (Invitrogen) was used in this study for expression of Lcc1, Lcc2, and Lcc3 laccases. cDNA fragments coding for these three laccases were cloned into Pichia expression vector pPICZA or pPICZaB via EcoRI and NotI restriction sites. More specifically, the lcc1 gene coding for Lcc1 precursor (including a signal peptide sequence) was cloned into pPICA to generate expression plasmid pPICZA-lcc1 and the lcc2 and lcc3 genes coding for mature Lcc2 and Lcc3 were cloned into pPICZaB to obtain expression plasmids pPICZaB-lcc2 and pPICZaB-lcc3, respectively. The three expression plasmids were introduced into P. pastoris X-33 cells following the method described in Invitrogen's protocol. Positive transformants were cultured in BMMY (1% yeast extract, 2% peptone, 100 mM potassium phosphate, pH 6.0, 1.34% yeast nitrogen base, 0.00004% biotin, and 0.5% methanol) at 25° C., 200 rpm for 12-26 days. Methanol was added to the culture media daily to reach a final concentration of 0.5%. During the cultivation, 1 ml of the supernatant was collected at various time points. The laccase activity and cell density in the supernatant were determined following the method described above or routine procedures.
pPICZ-lccA was introduced into Pichia pastoris strain X-33 host cells (Invitrogen) and positive transformants were selected for LccA expression. Briefly, a positive transformant was cultured in BMMY medium containing 1% yeast extract, 2% peptone, 1.34% yeast nitrogen base, 0.00004% biotin, and 0.5% methanol at 25° C. and 200 rpm for 20 days. Methanol was daily added to reach a final concentration of 0.5%. Within the 20-day cultivation, 1 ml of the supernatant was collected; laccase activity and cell growth were determined.

[9] = substrate: CCn1c(=NN=c2sc3cc(S(=O)(=O)O)ccc3n2CC)sc2cc(S(=O)(=O)O)ccc21; assay: purified protein, by the assay type; conditions: other: ABTS as substrate, 50 mM citrate buffer, 50 °C, pH 3.0
[10] = substrate: COc1ccccc1O; assay: Laccase kinetics of purified Cerrena sp. WR1 Lcc3; assay type: biochemical; conditions: other: guaiacol as substrate, 50 mM citrate buffer, 70 °C, pH 4.5, pH 4.5
[11] = substrate: COc1cccc(OC)c1O; assay: Laccase kinetics of purified Cerrena sp. WR1 Lcc3; assay type: biochemical; conditions: other: 2,6-DMP as substrate, 50 mM citrate buffer, 70 °C, pH 3.5, pH 3.5
[12] = 2,6-DMP as substrate, optimum 60 °C at pH 3.5
[13] = guaiacol as substrate, optimum 70 °C at pH 5.0
[14] = ABTS as substrate, optimum 70 °C at pH 2.5

## COc1cccc(OC)c1O [2,6-DMP, 2,6-dimethoxyphenol]
[1]; [12]
  Km: 434 µM
  kcat: 121.9 s⁻¹

## COc1ccccc1O [guaiacol]
[1]; [13]
  Km: 524 µM
  kcat: 305.5 s⁻¹

## CCn1c(=NN=c2sc3cc(S(=O)(=O)O)ccc3n2CC)sc2cc(S(=O)(=O)O)ccc21 [ABTS, 2,2′-azino-bis-(3-ethylbenzthiazoline-6-sulfonic acid)]
Agaricus blazei laccase; Table 2
  Km: 63 µM
Agaricus blazei laccase; Table 4
  Km: 63 µM
Agaricus blazei laccase
  kcat: 21 s⁻¹
[2]; Table 2
  Km: 77 µM
[2]; Table 4
  Km: 77 µM
[2]
  kcat: 1.155 s⁻¹
[3]; Table 2
  Km: 536 µM
[3]; Table 4
  Km: 536 µM
[3]
  kcat: 683.33 s⁻¹
[1]; [14]
  Km: 8.4 µM
  kcat: 2016.5 s⁻¹
[4]; Table 2
  Km: 37.3 µM
[4]; Table 4
  Km: 37.3 µM
[4]
  kcat: 351.3 s⁻¹
Panus tigrinus laccase; Table 2
  Km: 31 µM
Panus tigrinus laccase; Table 4
  Km: 31 µM
Panus tigrinus laccase
  kcat: 185.69 s⁻¹
[5]; Table 2
  Km: 56 µM
[5]; Table 4
  Km: 56 µM
[5]
  kcat: 520.24 s⁻¹
[6]
  Km: 33.4 µM
Cerrena unicolor laccase
  Km: 800 µM
[7]; Table 2
  Km: 43 µM
[7]; Table 4
  Km: 43 µM
[7]
  kcat: 350 s⁻¹

B1: Lcc2: laccase from Cerrena sp. WR1, GenBank accession no. GQ899202; SEQ ID NO:2 mature, 8 precursor (protein)
chain: AIGPVTDLTITNATISPDGFSRQAVLAGGVFPGPLITGNKGDNFQINVVNSLENSDMLKSTTIHWHGFFQKGTNWADGPAFVNQCPIATGNSFLYNFNADDQAGTFWYHSHLSTQYCDGLRGPMVVYDPNDPHASLYDVDDESTVITLADWYHTLARLGAAFPTADATLINGLGRYSDGTTSDLAVITVESGKRYRFRLVNISCDPNYTFSIDNHTFTVIEVDGVNHAALDVDEIQIFAGQRYSFVLTANQTVDNYWIRANPNLGTTGFDNGINSAILRYSGANETEPTTTQTTATAALSEASLVPLEDPAAPGEAVAGGVDYALNLAFAFDGANLDFTVNGETYVSPTVPVLLQILSGASSVSDLLPAGSVYSLPSNSTIELSMPGGVVGGGHPLHLHGHAFSVVRSAGSDTYNYVNPPRRDVVNIGAAGDNVTIRFTTDNPGPWFLHCHIDFHLEAGFAVVFAEDFNATASSNTVTTEWSNLCTTYDALSADDQ
modifications: Cerrena sp
[8]
  laccase activity in culture media: ~160 U/L

B2: Cerrena sp. WR1 laccase Lcc3, wild type (mature SEQ ID NO: 3; precursor SEQ ID NO: 9; GenBank GQ899203) (Cerrena sp. WR1) (protein)
chain: AIGPVADLHITDANVSPDGFTRPAVLAGGTFPGPLITGKQGDNFQINVIDELTDATMLKSTSIHWHGIFQKGTNWADGPSFVNQCPITTGNSFLYDFSVPDQTGTYWYHSHLSTQYCDGLRGALVIYDDNDPHKDLYDVDDETTVITLADWYHTQARLITGVPVSDATLINGLGRYLNGPTDAPLAVITVDQGKRYRFRLVSISCDPNFVFSIDNHSMTVIEVDAVNSQPLVVDSIQIFAAQRYSFILNANQSVGNYWIRANPNLGNTGFTNGINSAILRYNGAPVAEPNTTQTASTNPLNEVNLHPLVPTPVPGTPQPGGVDVVQNLVLGFSGGKFTINGVAFSPPTVPVLLQILSGTTTAQDLLPTGSIIELPLGKTVELTLAAGVLGGPHPFHLHGHTFHVVRSAGQTTPNYVDPILRDTVNTGAAGDNVTIRFTTDNPGPWFLHCHIDWHLEAGFAVVFAEGLNQTNAANPTPDAWNNLCDLYNALPAGDQ
notes: WR1 culture supernatant (Q Sepharose); precursor 516 aa with 21-residue signal peptide
[9]
  Km: 3.27 µM
  kcat: 934.6 s⁻¹
[10]
  Km: 849.1 µM
  kcat: 148 s⁻¹
[11]
  Km: 392.7 µM
  kcat: 109 s⁻¹
  kcat/Km: 280000 M⁻¹ s⁻¹

B3: Lcc1: laccase from Cerrena sp. WR1, GenBank accession no. GQ899201; SEQ ID NO:1 mature, 7 precursor (protein)
chain: AIGPVTDLEITNGTISPDGYSRAAVLAGGSFPGPLITGNKSDNFQINVVNSLADSDMLKSTTVHWHGFFQKGTNWADGPAFVNQCPIATGNSFLYNFNATDQAGTFWYHSHLETQYCDGLRGPMVVYDPDDPHADLYDVDDDSTVITLADWYHTLARLGAAFPTSDATLINGLGRYSDGNTTDLAVITVESGKRYRFRLVSISCDPNFTFSIDNHTMTIIEADAVNYTPLDVDEIQIFAGQRYSFILTANQTVDNYWIRADPNVGTTGFDNGINSAILRYSGADEVEPTTNQTTSTNPLVEANLVPLDGAAAPGEAVAGGVDYALNLALAFDGTNLDFTVNGYEYTSPTVPVLLQILSGASSVDDLLPSGSIYSLPSNSTIELSIPALAVGAPHPIHLHGHTFSVVRSAGSTTYNYDNPPRRDVVSIGTATDDNVTIRFTTDNPGPWFLHCHIDFHLEAGFAVVFAEDFNDTASANTVTTEWSDLCTTYDALSSDDL
modifications: Cerrena sp
[8]
  laccase activity in culture media: approximately 800 U/L

B4: LccA: laccase from Lentinus sp., GenBank accession no. FJ693715; SEQ ID NO:4 mature, 10 precursor (protein)
chain: GIGPIASLVVTDAQISPDGYLRDAIVTNGVFPAPLITGRKGDHFQLNVVDSMTNHTMLKSTSIHWHGFFQKGTNWADGPAFVNQCPISSGHSFLYDFHVPDQAGTFWYHSHLSTQYCDGLRGPMVVYDPNDPHANLYDIDNDSTVITLADWYHVAAKLGPRFPLGADATLINGKGRSPATPTAALSVINVVKGKRYRFRLVSISCDPNYVFSIDNHTMTVIEADTVNTQPLAVDSIQIFAAQRYSFILNANQPVDNYWIRANPNFGNVGFTDGINSAILRYTGAALVEPSATTAPTLSNPLVETNLHPLAPMPVPGQPVSGGVDKAINFAFNFDGTDFFINGASFVPPTVPVLLQIMSGASTAQDLLPSGSVYPLPSNATIELSFPATAAAPGAPHPFHLHGHVFAVVRSAGSTTYNYNNPIWRDVVSTGTPAAGDNVTIRFSTNNPGPWFLHCHIDFHLEAGFAVVMAEDVPDIPSANPVPQAWSNLCPTYNALSSDDQ
modifications: Lentinus sp
[8]
  laccase activity in culture media: about 400 U/L
